Patent US20080214535A1, “Amorphous Aprepitant Coprecipitates” (DR. REDDY'S LABORATORIES LTD., priority 2005, published 2008)
Converted amounts (≈) assume the structure as drawn. Read-outs that look alike come from different tables or passages of the source.

Experiments:
[1] = Solubility comparison: saturated solution in water, absorbance at 210 nm; type: physicochemical; settings: room temperature
Protocol: Solubility studies of different aprepitant powders were conducted. Sufficient aprepitant having either crystalline Form I or II, or in the form of an amorphous povidone coprecipitate, was added to a 25 ml test tube containing 10 ml of water at room temperature to get a saturated solution. The solutions were filtered and filtrate was used to obtain the absorbance at 210 nm. Absorbance was compared to standards prepared by dissolving aprepitant in methanol, then diluting aliquots with water.

[2] = cited from earlier work

Row | Structure (SMILES) | Solubility in water [1] | Solubility in acetonitrile ([2]; acetonitrile) | Solubility in ethanol ([2]; ethanol) | Solubility in isopropyl acetate ([2]; isopropyl acetate) | Solubility in water ([2]; water)
1 | C[C@@H](O[C@H]1OCCN(Cc2n[nH]c(=O)[nH]2)[C@H]1c1ccc(F)cc1)c1cc(C(F)(F)F)cc(C(F)(F)F)c1 [crystalline Form II, 5-[[(2R,3S)-2-[(1R)-1-[3,5-bis(trifluoromethyl)phenyl]ethoxy]-3-(4-fluorophenyl)-4-morpholinyl]methyl]-1,2-dihydro-3H-1,2,4-triazol-3-one] | 140 µg/mL (≈ 262 µM) |  |  |  | 
2 | C[C@@H](O[C@H]1OCCN(Cc2n[nH]c(=O)[nH]2)[C@H]1c1ccc(F)cc1)c1cc(C(F)(F)F)cc(C(F)(F)F)c1 [Aprepitant, 5-[[(2R,3S)-2-[(1R)-1-[3,5-bis(trifluoromethyl)phenyl]ethoxy]-3-(4-fluorophenyl)-4-morpholinyl]methyl]-1,2-dihydro-3H-1,2,4-triazol-3-one] |  | slightly soluble | sparingly soluble | sparingly soluble | practically insoluble
3 | C[C@@H](O[C@H]1OCCN(Cc2n[nH]c(=O)[nH]2)[C@H]1c1ccc(F)cc1)c1cc(C(F)(F)F)cc(C(F)(F)F)c1 [crystalline Form I, 5-[[(2R,3S)-2-[(1R)-1-[3,5-bis(trifluoromethyl)phenyl]ethoxy]-3-(4-fluorophenyl)-4-morpholinyl]methyl]-1,2-dihydro-3H-1,2,4-triazol-3-one] | 20 µg/mL (≈ 37.4 µM) |  |  |  | 
